Assay results reported in patent US11168364B2, “Method and system for sequencing nucleic acids” (priority 2016, dated 2021).
Read-outs that look alike come from different tables or passages of the source.

Columns and labels:
[1] = biological target: Klenow (3′→5′ exo(−)) fragment of E. coli DNA polymerase (Escherichia coli, UniProt P00582, D355A/E357A)
[2] = biological target: T1, HIV reverse transcriptase (Human immunodeficiency virus type 1 group M subtype B, UniProt P03366); test: Biolayer interferometry binding of HIV RT, dNTP and NNRTI to primer-template biosensor (Example 8); parameters: species or system HIV-1; settings: 100 μM dNTP, 100 nM HIV RT, association phase
T1 construct: Recombinant purified HIV reverse transcriptase (HIV RT) was from Worthington Biochemical Corp; purchased Worthington Biochemical Corp (Lakewood, N.J.)
Description: Uncompetitive NNRTI compounds (Pitta et al., J. Enzyme Inhib. Med. Chem. 28(10): 113-22 (2013)), which is incorporated by reference herein in its entirety), were from Epigen Biosciences, Inc. (San Diego, Calif.). NNRTI compounds 7 (3-4-chloro-benzo[d]thiazol-2-yl)-2-(2-chloro-6-fluorophenyl)thiazolidin-4-one) and 18 (3-(6-ethoxy-benzo[d]thiazol-2-yl)-2-(2-chloro-6-fluorophenyl)thiazolidin-4-one) were dissolved in dimethylsulfoxide (DMSO) to concentrations of 25.0 mM and 15.0 mM, respectively. Recombinant purified HIV reverse transcriptase (HIV RT) was from Worthington Biochemical Corp (Lakewood, N.J.). Ultra-pure bovine serum albumin (BSA) was from Ambion (Foster City, Calif.). […] Primer-template duplex was diluted (100 μM) into Annealing Buffer. Immediately before use, HIV Reverse Transcriptase was pre-diluted into Enzyme Diluent (50 mM Tris buffer (pH 8.0), 8 mM MgCl2). […] NNRTI compounds were pre-diluted with DMSO immediately before being spiked into Binding Buffer. Reaction Buffer was Binding Buffer without NNRTI, dNTP or HIV RT enzyme. […] Biosensors were transferred to Binding Buffer containing HIV RT and dCTP+NNRTI (association phase) followed by Reaction Buffer (dCTP incorporation and dissociation phase). […] Cycles of binding and incorporation were repeated multiple times. […]

Klenow = Klenow (Escherichia coli, UniProt P00582); test: Label-free optical detection of Klenow binding with magnesium in the examination step (Example 1); settings: Polymerase Buffer with 10 mM MgCl2; 150 nM Klenow; 100 μM dNTP; template base T
Sequence of Klenow (P00582 324-928): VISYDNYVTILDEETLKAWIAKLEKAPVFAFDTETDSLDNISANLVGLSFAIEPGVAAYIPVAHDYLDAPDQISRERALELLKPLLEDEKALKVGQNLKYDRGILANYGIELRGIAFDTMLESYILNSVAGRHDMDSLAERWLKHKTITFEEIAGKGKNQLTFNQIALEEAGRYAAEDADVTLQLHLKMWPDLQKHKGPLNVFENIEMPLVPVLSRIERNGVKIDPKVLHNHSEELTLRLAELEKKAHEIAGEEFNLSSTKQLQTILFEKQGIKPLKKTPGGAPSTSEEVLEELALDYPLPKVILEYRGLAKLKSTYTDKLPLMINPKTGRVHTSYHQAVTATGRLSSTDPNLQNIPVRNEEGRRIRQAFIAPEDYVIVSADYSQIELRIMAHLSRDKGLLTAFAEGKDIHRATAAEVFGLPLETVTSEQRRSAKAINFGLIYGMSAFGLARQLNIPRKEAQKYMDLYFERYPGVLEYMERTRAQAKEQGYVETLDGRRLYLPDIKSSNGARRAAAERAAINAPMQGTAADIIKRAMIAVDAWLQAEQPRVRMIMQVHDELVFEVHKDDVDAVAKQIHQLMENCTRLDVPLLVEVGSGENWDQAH

[3] = test system: Nucleic Acid:Polymerase Complex; test: Stabilization of nucleic acid:polymerase complex in wash buffer (Example 6); type: binding; settings: 3.5 mM Sr2+ in wash buffer (LS buffer)
Description: To minimize the possibility of multiple incorporations in a homopolymer region, a wash step can be performed before incorporation. Metal cations such as calcium and strontium can stabilize the polymerase complex (like magnesium), but cannot support catalysis of the phosphodiester bond which results in incorporation of the nucleotide. In this experiment, varying concentrations of SrCl2 (0 mM-14 mM) were added to the wash buffer (LS buffer).

[4] = divalent cation 2.0 mM (CoCl2 1.0 mM) in Binding Buffer, 100 μM dCTP
[5] = divalent cation 2.0 mM (CoCl2 1.0 mM), 100 μM dCTP

Sequence of Klenow (3′→5′ exo(−)) fragment of E. coli DNA polymerase (P00582 324-928 D355A/E357A limits assumed): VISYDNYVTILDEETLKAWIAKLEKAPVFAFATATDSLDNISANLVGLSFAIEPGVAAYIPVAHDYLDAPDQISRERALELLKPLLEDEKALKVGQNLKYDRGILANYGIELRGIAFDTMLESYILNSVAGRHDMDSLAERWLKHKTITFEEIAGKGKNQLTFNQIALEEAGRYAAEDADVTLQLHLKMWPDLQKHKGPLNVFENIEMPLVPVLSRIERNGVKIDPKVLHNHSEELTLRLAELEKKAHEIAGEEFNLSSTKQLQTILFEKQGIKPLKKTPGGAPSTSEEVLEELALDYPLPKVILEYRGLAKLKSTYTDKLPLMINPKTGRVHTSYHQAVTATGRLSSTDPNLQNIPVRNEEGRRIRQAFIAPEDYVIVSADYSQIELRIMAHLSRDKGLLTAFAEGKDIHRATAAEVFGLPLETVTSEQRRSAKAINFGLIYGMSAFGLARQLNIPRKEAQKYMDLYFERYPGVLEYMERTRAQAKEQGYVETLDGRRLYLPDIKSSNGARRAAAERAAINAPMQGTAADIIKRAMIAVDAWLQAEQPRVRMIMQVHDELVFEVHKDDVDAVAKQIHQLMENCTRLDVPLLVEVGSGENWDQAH

[Cl][Cu][Cl] [Cu2+, copper(II) chloride]
binding of Klenow exo(−) and dCTP to biosensor coated with ssDNA primer-template [1]: transient peak

N.N.O=S(=O)(O)O [ammonium sulfate]
binding of Klenow exo(−) and dCTP to biosensor coated with ssDNA primer-template [1, 4]: bound strongly

CCOc1ccc2nc(N3C(=O)CSC3c3c(F)cccc3Cl)sc2c1 (centres unmarked) [NNRTI compound 18, 3-(6-ethoxy-benzo[d]thiazol-2-yl)-2-(2-chloro-6-fluorophenyl)thiazolidin-4-one]
binding of HIV reverse transcriptase and correct dNTP to biosensor coated with primer-template ([2]; NNRTI 80 μM): distinct peaks for binding

[Ca+2].[Cl-].[Cl-] [Ca2+, calcium chloride]
binding of Klenow exo(−) and dCTP to biosensor coated with ssDNA primer-template [1]: transient peak
nucleotide incorporation by Klenow exo(−) in the absence of Mg2+ [1]: complete nucleotide incorporation

Nc1ccn([C@H]2C[C@H](O)[C@@H](COP(=O)(O)OP(=O)(O)OP(=O)(O)O)O2)c(=O)n1 [dCTP, 2′-deoxycytidine-5′-triphosphate]
pre-steady state rate constant (Klenow): 0.0084

[Ba+2].[Cl-].[Cl-] [BaCl2, barium chloride]
binding of Klenow exo(−) and dCTP to biosensor coated with ssDNA primer-template [1, 4]: bound strongly

manganese chloride [Mn2+]
binding of Klenow exo(−) and dCTP to biosensor coated with ssDNA primer-template [1, 4]: flat peak
nucleotide incorporation by Klenow exo(−) in the absence of Mg2+ [1, 5]: complete nucleotide incorporation

[Cl][Co][Cl] [Co2+, cobalt chloride]
binding of Klenow exo(−) and dCTP to biosensor coated with ssDNA primer-template [1, 4]: transient peak
nucleotide incorporation by Klenow exo(−) in the absence of Mg2+ [1, 5]: complete nucleotide incorporation

Nc1ncnc2c1ncn2[C@H]1C[C@H](O)[C@@H](COP(=O)(O)OP(=O)(O)OP(=O)(O)O)O1 [dATP, 2′-deoxyadenosine-5′-triphosphate]
pre-steady state rate constant (Klenow): 0.0106

[Cl-].[Cl-].[Sr+2] [SrCl2, Strontium chloride]
stability of polymerase complex in wash buffer [3]: much more stable
binding of Klenow exo(−) and dCTP to biosensor coated with ssDNA primer-template [1, 4]: bound strongly

O=C1CSC(c2c(F)cccc2Cl)N1c1nc2c(Cl)cccc2s1 (centres unmarked) [NNRTI compound 7]
binding of HIV reverse transcriptase and correct dNTP to biosensor coated with primer-template ([2]; NNRTI 40 μM): distinct peaks for binding

[Cl-].[Cl-].[Zn+2] [Zn2+, zinc chloride]
binding of Klenow exo(−) and dCTP to biosensor coated with ssDNA primer-template [1, 4]: transient peak
nucleotide incorporation by Klenow exo(−) in the absence of Mg2+ [1, 5]: complete nucleotide incorporation
